Source: patent publication US8710010B2, “Peptides useful in the treatment and/or care of skin, mucous membranes, scalp and/or hair and their use in cosmetic or pharmaceutical compositions” (Lipotec, S.A., priority 2008, dated 2014)
Where a SMILES comes first, the peptide text is derived from it. [ ]: non-standard residue; d: D form. Dap = NC[C@H](N)C(=O)O

Columns and labels:
[1] = Scavenging assay of 4-hydroxy-2-nonenal; format: biochemical; settings: 2 mM peptide in 10 mM PBS mixed with equal volume of 100 μM aldehyde in acetonitrile, 37° C., 24 h, HPLC of remaining aldehyde
Protocol: Scavenging assay of 4-hydroxy-2-nonenal.
(§1) A solution was prepared from peptides in a 10 mM PBS buffer at a concentration of 2 mM, as well as a solution of the aldehyde in acetonitrile at a concentration of 100 μM. Equal volumes of peptide solutions and aldehyde were mixed and were left to react at 37° C. for 24 h. The scavenging efficiency of the RCS was measured by HPLC analysis of the remaining aldehyde content in the reaction mixture.

[2] = Scavenging assay of 2-nonenal; format: biochemical; settings: 2 mM peptide in 10 mM PBS mixed with equal volume of 100 μM aldehyde in acetonitrile, 37° C., 24 h, HPLC of remaining aldehyde
Protocol: Scavenging assay of 2-nonenal.
as §1, with “and” for “and were”

human keratinocytes = experiment: Photoprotection efficiency in cultured human keratinocytes (solar simulation lamp, Neutral Red viability); format: cell-based; settings: 1 mg/ml peptide, viability compared with irradiated and non-irradiated control cells
Protocol: Testing the photoprotection efficiency of H-L-Dpr-D-Ala-L-Pro-L-His-OH, H-L-Dpr-D-Ala-L-Ala-L-His-OH and H-L-Dp- L-Ala-L-Pro-L-His-OH in cultured human keratinocytes.
Human keratinocytes were maintained in culture for 24 h on 96 well plates to form monolayers and the cells were pre-incubated in the dark with 1 mg/ml of H-L-Dpr-D-Ala-L-Pro-L-His-OH, H-L-Dpr-D-Ala-L-Ala-L-His-OH, H-L-Dpr-L-Ala-L-Pro-L-His-OH or phosphate buffered saline (control) for one hour at 37° C. and humidified air with 5% CO2. Subsequently, cells were irradiated with a solar simulation lamp (with an energy of 37 J/cm^2 at room temperature for 150 min in the case of H-L-Dpr-D-Ala-L-Pro-L-His-OH). A control plate was kept in the dark during the same time at room temperature. After the period of irradiation, the cell medium was replaced by a fresh medium and the cells were incubated for an additional 24 h.
Cell viability was determined by the Neutral Red dye, measuring the absorbance at 540 nm in a spectrophotometer.
The photoprotection efficiency was determined by comparing the viability obtained in cells treated with H-L-Dpr-D-Ala-L-Pro-L-His-OH, H-L-Dpr-D-Ala-L-Ala-L-His-OH or H-L-Dpr-L-Ala-L-Pro-L-His-OH on the response of irradiated and non-irradiated control cells.

[3] = tested on: Primary cultures of human melanocytes; experiment: Protective capacity against DNA degradation (UVA, alkaline comet assay); format: cell-based; settings: 1.0 μg/mL for 2 h at 37° C., then UVA 1.0 J/cm^2, alkaline comet assay
Protocol: Test of the Protective Capacity of DNA Degradation
Primary cultures of human melanocytes (10^5 cells/plate) were treated with 1.0 μg/mL of H-L-Dpr-D-Ala-L-Pro-L-His-OH for 2 h at 37° C. Subsequently, the cultures were irradiated with UVA at 1.0 J/cm^2 for no longer than 3min at 4° C. and the extent of the damage induced to DNA was determined by alkaline comet assay [De Meo M., Laget M., Castegnaro M. and Dumenil G. (1991) “Genotoxic activity of potassium permanganate in acidic solutions” Mutat. Res 260:295-306].

[4] = tested on: Primary cultures of human fibroblasts; experiment: Repair capacity of DNA degradation (UVB, alkaline comet assay); format: cell-based; settings: UVB 0.4 J/cm^2 30 s, versus intrinsic repair efficiency of the cells
Text: Testing the Repair Capacity of DNA Degradation
Primary cultures of human fibroblasts (10^5 cells/plate) were irradiated to 0.4 J/cm^2 UVB for 30 seconds. […]

[5] = Reduction of the odor emitted by aldehyde 2-nonenal (sniff test); settings: 0.05% peptide in phosphate buffer 10 mM pH 7-7.5 added to equal volume of 0.00089% 2-nonenal in acetonitrile, odor at time zero and 24 h, panel of 3 experts
Protocol: Reduction of the Odor Emitted by Aldehyde 2-nonenal
We evaluated the reduction of the odor given off by aldehyde 2-nonenal after the addition of a solution containing 0.05% of H-L-Dpr-L-Ala-L-Ala-L-His-OH through an olfactory test (“sniff test”) conducted by a panel of 3 independent experts.
We prepared a solution of 2-nonenal at 0.00089% in acetonitrile to which was added an equal volume of phosphate buffer 10 mM pH 7-7.5 or H-L-Dpr-L-Ala-L-Ala-L-His-OH to 0.05% in phosphate buffer 10 mM pH 7-7.5. We evaluated the odor intensity given off at time zero and 24 h after creating the mixture of aldehyde and peptide, performing the measurements in a room heated to 24° C. and with controlled humidity at 60% and statistically analyzed the values obtained using the Wilcoxon Matched Paired test.

## NCCC(=O)N[C@@H](Cc1cnc[nH]1)C(=O)O [Carnosine, carnosine, reference compound]
[1]
  Scavenging % of HNE aldehyde: 89.4%
[2]
  Scavenging % of NE aldehyde: 70.3%

## NCCCC[C@H](NC(=O)[C@H](Cc1c[nH]cn1)NC(=O)CN)C(=O)O [GHK, glycyl-histidyl-lysine, reference compound] (H-Gly-His-Lys-OH)
[1]
  Scavenging % of HNE aldehyde: 82.1%
[2]
  Scavenging % of NE aldehyde: 24.7%

## C[C@@H](NC(=O)[C@@H](N)CN)C(=O)N1CCC[C@H]1C(=O)N[C@@H](Cc1c[nH]cn1)C(=O)O [H-L-Dpr-D-Ala-L-Pro-L-His-OH] (H-[Dap][dA]PH-OH)
[1]
  Scavenging % of HNE aldehyde: 98.0%
[2]
  Scavenging % of NE aldehyde: 97.0%
Human keratinocytes
  PHOTOPROTECTION EFFICIENCY: 92.0%
[3]
  PROTECTIVE EFFICIENCY against DNA degradation: 36.1%
[4]; then 0.25 μg/mL for 3 h at 37° C.
  REPAIR EFFICIENCY of DNA degradation: 120%
[4]; then 0.5 μg/mL for 3 h at 37° C.
  REPAIR EFFICIENCY of DNA degradation: 170%

## C[C@H](NC(=O)[C@@H](N)CN)C(=O)N1CCC[C@H]1C(=O)N[C@@H](Cc1c[nH]cn1)C(=O)O [H-L-Dpr-L-Ala-L-Pro-L-His-OH] (H-[Dap]APH-OH)
[1]
  Scavenging % of HNE aldehyde: 93.9%
[2]
  Scavenging % of NE aldehyde: 76.7%
Human keratinocytes
  PHOTOPROTECTION EFFICIENCY: 56.8%

## H-L-Dpr-D-AIa-L-Asn-L-His-NH2
[2]
  Scavenging % of NE aldehyde: 98.9%

## H-L-Dpr-D-Ala-L-Ala-L-His-NH2
[1]
  Scavenging % of HNE aldehyde: 97.7%
[2]
  Scavenging % of NE aldehyde: 98.2%

## H-L-Dpr-D-Ala-L-Asp-L-His-OH
[1]
  Scavenging % of HNE aldehyde: 98.8%
[2]
  Scavenging % of NE aldehyde: 95.4%

## H-L-Dpr-D-Ala-L-Glu-L-His-NH2
[1]
  Scavenging % of HNE aldehyde: 97.7%
[2]
  Scavenging % of NE aldehyde: 95.2%

## H-L-Dpr-D-Ala-L-Glu-L-His-OH
[2]
  Scavenging % of NE aldehyde: 93.2%

## H-L-Dpr-D-Ala-L-Pro-L-His-NH2
[1]
  Scavenging % of HNE aldehyde: 98.3%
[2]
  Scavenging % of NE aldehyde: 98.1%

## H-L-Dpr-L-Ala-D-Asp-L-His-OH
[1]
  Scavenging % of HNE aldehyde: 94.1%
[2]
  Scavenging % of NE aldehyde: 83.1%

## H-L-Dpr-L-Ala-L-Ala-L-His-NH2
[1]
  Scavenging % of HNE aldehyde: 96.0%
[2]
  Scavenging % of NE aldehyde: 94.1%

## H-L-Dpr-L-Ala-L-Ala-L-His-OH
[2]
  Scavenging % of NE aldehyde: 74.6%
[5]
  reduction of the odor given off by 2-nonenal: 15.6%

## H-L-Dpr-L-Ala-L-Asn-L-His-NH2
[2]
  Scavenging % of NE aldehyde: 95.3%

## H-L-Dpr-L-Ala-L-Asn-L-His-OH
[2]
  Scavenging % of NE aldehyde: 73.1%

## H-L-Dpr-L-Ala-L-Asp-D-His-OH
[1]
  Scavenging % of HNE aldehyde: 86.3%
[2]
  Scavenging % of NE aldehyde: 66.5%

## H-L-Dpr-L-Ala-L-Asp-L-His-NH2
[1]
  Scavenging % of HNE aldehyde: 97.5%
[2]
  Scavenging % of NE aldehyde: 94.5%

## H-L-Dpr-L-Ala-L-Asp-L-His-OH
[1]
  Scavenging % of HNE aldehyde: 97.6%

## H-L-Dpr-L-Ala-L-Glu-L-His-NH2
[2]
  Scavenging % of NE aldehyde: 92.6%

## H-L-Dpr-L-Ala-L-Glu-L-His-OH
[2]
  Scavenging % of NE aldehyde: 75.6%

## H-L-Dpr-L-Ala-L-Pro-L-His-NH2
[1]
  Scavenging % of HNE aldehyde: 96.3%
[2]
  Scavenging % of NE aldehyde: 88.7%
